Measurements as given in patent US12590123B2, “Compounds and methods for treating cancer, viral infections, and allergic conditions” (Washington University, priority 2019, dated 2026).

How the values were obtained:
Format in all cases: biochemical
matriptase = target: T1, matriptase (Homo sapiens, UniProt Q9Y5Y6); test: Fluorescent kinetic enzyme assay of matriptase activity (Boc-QAR-AMC); settings: Table 2; read-out: Matriptase (IC50 nM)
T1 construct: purchased R&D Systems 3946-SE-010
T1 sequence (Q9Y5Y6 615-855 limits assumed): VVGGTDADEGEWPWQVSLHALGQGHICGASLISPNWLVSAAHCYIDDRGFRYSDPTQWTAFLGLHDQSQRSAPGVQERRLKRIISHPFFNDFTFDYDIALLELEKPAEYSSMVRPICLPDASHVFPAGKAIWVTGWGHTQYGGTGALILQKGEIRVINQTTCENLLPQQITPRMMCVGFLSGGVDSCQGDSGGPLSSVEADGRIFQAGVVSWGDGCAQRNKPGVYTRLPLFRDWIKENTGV

recombinant thrombin = recombinant thrombin (Homo sapiens, UniProt P00734); test: Chromogenic kinetic enzyme assay of thrombin (S2238); settings: Table 2; chromogenic assay; read-out: Thrombin* (IC50 nM)
Description: Using GraphPad Prism (GraphPad Software, San Diego, CA), a four-parameter curve fit was used to determine the inhibitor IC50s from a plot of the mean reaction velocity versus the inhibitor concentration. The IC50 values represent the average of three or more separate experimental determinations. Apparent Ki values were calculated from the IC50 values using the Cheng and Prusoff equation (Ki=IC50/(1+[S]/Km).
Using GraphPad Prism version 6.04 software program, (GraphPad Software, San Diego, CA, graphpad.com), a four parameter curve fit was used to determine the inhibitor IC50s from a plot of the mean reaction velocity versus the inhibitor concentration.
Fluorescent inhibitor and chromogenic proteolytic assays were performed for compounds prepared in Example 11 in general accordance with the procedures described in Example 9.

activated hepsin = target: T2, activated hepsin (Homo sapiens, UniProt P05981); test: Fluorescent kinetic enzyme assay of hepsin activity (Boc-QAR-AMC); settings: Table 2; read-out: Hepsin (IC50 nM)
T2 construct: purchased R&D Systems 4776-SE-010

KLK5 = target: T3, KLK5 (Homo sapiens, UniProt Q9Y337); test: Fluorescent kinetic enzyme inhibitor assay of KLK5 (Boc-VPR-AMC); settings: Table 4; 7.5 nM KLK5, 100 μM substrate
T3 construct: purchased R&D Systems 1108-SE-010
T3 sequence (Q9Y337 23-293): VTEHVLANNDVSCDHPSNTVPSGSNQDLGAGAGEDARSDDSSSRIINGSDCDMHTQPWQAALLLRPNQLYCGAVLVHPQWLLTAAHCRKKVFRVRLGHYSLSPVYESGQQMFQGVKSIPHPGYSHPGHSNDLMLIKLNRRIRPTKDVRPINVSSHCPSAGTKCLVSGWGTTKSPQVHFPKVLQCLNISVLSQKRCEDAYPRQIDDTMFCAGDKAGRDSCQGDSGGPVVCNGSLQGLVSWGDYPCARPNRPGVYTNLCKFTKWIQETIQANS
Description: Fluorescent Kinetic Enzyme Inhibitor Assay of KLK5: Inhibitors (11-pt serial dilutions, 0-20 μM final concentration in reaction) were serially diluted in DMSO (2% DMSO final concentration) and then mixed with KLK5 (#1108-SE-010, R&D Systems, Minneapolis, Minnesota) in black 384 well plates (Corning #3575. Corning, NY). The final assay concentration for KLK5 is 7.5 nM in TNC buffer (25 mM Tris, 150 mM NaCl, 5 mM CaCl2), 0.01% Triton X-100, pH 8). After thirty minutes incubation at room temperature, Boc-VPR-AMC substrate was added. The final substrate concentrations for assay is 100 μM. Changes in fluorescence (excitation at 380 nm and emission at 460 nm) were measured at room temperature over time in a Biotek Synergy 2 plate reader (Winnoski, VT). Using GraphPad Prism version 6.04 software program, (GraphPad Software, San Diego, CA, graphpad.com), a four parameter curve fit was used to determine the inhibitor IC50s from a plot of the mean reaction velocity versus the inhibitor concentration. The IC50 values represent the average of three or more separate experimental determinations.

T2 sequence (P05981 163-417 limits assumed): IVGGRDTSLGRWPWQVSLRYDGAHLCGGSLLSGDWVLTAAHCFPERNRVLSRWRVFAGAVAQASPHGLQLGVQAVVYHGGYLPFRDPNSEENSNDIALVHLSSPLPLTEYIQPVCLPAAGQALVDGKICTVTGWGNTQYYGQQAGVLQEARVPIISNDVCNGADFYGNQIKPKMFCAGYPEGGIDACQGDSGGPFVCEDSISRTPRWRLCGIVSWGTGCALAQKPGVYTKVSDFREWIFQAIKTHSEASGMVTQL
T2 sequence (P05981 1-162 partner limits assumed): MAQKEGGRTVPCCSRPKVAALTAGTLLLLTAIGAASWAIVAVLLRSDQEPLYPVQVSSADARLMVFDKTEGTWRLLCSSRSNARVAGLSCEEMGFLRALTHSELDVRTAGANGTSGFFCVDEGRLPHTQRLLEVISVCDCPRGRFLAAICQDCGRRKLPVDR

IC50 (matriptase): 3.4 nM | IC50 (recombinant thrombin): 1090 nM | IC50 (activated hepsin): 17.4 nM | IC50 (KLK5): 2530 nM
SMILES: CC(=O)N[C@H]1CC(=O)NCCCC[C@@H](C(=O)N[C@@H](CCCNC(=N)N)C(=O)c2nc3ccccc3s2)NC(=O)[C@H](Cc2ccccc2)NC1=O [VD3112, (3S,6S,14S)-6-acetamido-N—((S)-1-(benzo[d]thiazol-2-yl)-5-guanidino-1-oxopentan-2-yl)-3-benzyl-2,5,8-trioxo-1,4,9-triazacyclotetradecane-14-carboxamide]
